Experimental data from article PMC7011974, “Benzimidazole derivatives endowed with potent antileishmanial activity” (Journal of Enzyme Inhibition and Medicinal Chemistry, 2017).
“And” between values parts separate entries of the source, which are not always exact repeats. Identical values can stand only once. Like-named read-outs stand apart in the source and are kept apart here.

Key:
[1] = system: L. tropica promastigotes; assay: Antileishmanial activity on L. tropica promastigotes (MTT); format: cell-based, Leishmania tropica; settings: for IC50: Leishmania tropica, 72 h, read-out: IC50 (µM) L. tropica
[2] = system: L. infantum promastigotes; assay: Antileishmanial activity on L. infantum promastigotes (MTT); format: cell-based, Leishmania infantum; settings: for IC50: Leishmania infantum, 72 h, read-out: IC50 (µM) L. infantum
[3] = in vitro; settings: monkey
[4] = system: monkey kidney (Vero76) cells; assay: Cytotoxicity on Vero-76 cells (crystal violet)
[5] = system: serum cholesterol concentration; design: method as in ref 21 = [21]; 21 (a) Sparatore F , Boido V , Fanelli F. Dialkylaminoalkylbenzimi-dazoles of pharmacological interest . Farmaco Sci 1968; 23 : 344 – 59 . (b) Paglietti G , Sparatore F. Dialkylaminoalkyl-benzimidazo; settings: hypercholesterolemic mice, 50 mg/kg p.os; cited from earlier work
[6] = system: promastigote stage of L. infantum; settings: read-out: IC50 of miltefosine versus promastigote stage of L. infantum, literature, cited from earlier work
[7] = system: human microvascular endothelial cell line (HMEC-1); assay: Cytotoxicity on HMEC-1 cells (MTT); format: cell-based; settings: for IC50: Homo sapiens, cytotoxicity, HMEC-1 cells, MTT
[8] = system: Coxsackie virus B5 (CVB-5); design: method as in ref 24c = [24]; 24 (a) Tonelli M , Paglietti G , Boido V , et al Antiviral activity of benzimidazole derivatives. I. Antiviral activity of 1-substituted-2-[(benzotriazol-1/2-yl)methyl]benzimidazoles . Chem Biodivers; settings: ref 24c; cited from earlier work
[9] = system: 24 human cancer cell lines; design: method as in ref 25b = [25]; 25 (a) Novelli F , Tasso B , Sparatore F. Synthesis and biological investigations of 2-(tetrahydropyran-2'-yl) and 2-(tetrahydrofuran-2'-yl)benzimidazoles . Farmaco 1997; 52 : 499 – 507 . (b) Tonelli; settings: ref 25b; read-out: GI50 against 24 human cancer cell lines; cited from earlier work
[10] = system: renal cancer cell line UO31; design: method as in ref 25b = [25]; 25 (a) Novelli F , Tasso B , Sparatore F. Synthesis and biological investigations of 2-(tetrahydropyran-2'-yl) and 2-(tetrahydrofuran-2'-yl)benzimidazoles . Farmaco 1997; 52 : 499 – 507 . (b) Tonelli; settings: ref 25b; cited from earlier work
[11] = system: intramacrophagic amastigote stage of L. infantum; assay: In vitro intracellular amastigote susceptibility assay in THP-1 macrophages; format: cell-based, Leishmania infantum
Experimental: (b) In vitro intracellular amastigote susceptibility assays. […] Cell monolayers were then washed and incubated with compounds for 72 h. Slides were fixed with methanol and stained with Giemsa. The percentage of infected macrophages in treated and non-treated cells was determined by light microscopy.

[12] = system: respiratory syncytial virus (RSV); design: method as in ref 24c = [24]; 24 (a) Tonelli M , Paglietti G , Boido V , et al Antiviral activity of benzimidazole derivatives. I. Antiviral activity of 1-substituted-2-[(benzotriazol-1/2-yl)methyl]benzimidazoles . Chem Biodivers; settings: ref 24c; cited from earlier work
[13] = system: L. donovani (promastigotes); design: method as in PMID 20430484, PMID 15183913, PMID 18486471; settings: Figure 3; cited from earlier work
[14] = system: L. mexicana (promastigotes); design: method as in PMID 20430484, PMID 15183913, PMID 18486471; settings: Figure 3; cited from earlier work
[15] = system: L. mexicana (amastigotes); design: method as in PMID 20430484, PMID 15183913, PMID 18486471; settings: Figure 3; cited from earlier work
[16] = promastigotes, MTT, starred values mean of two experiments
[17] = fold potency versus miltefosine
[18] = percent of amphotericin B potency, calculated for each experiment

| Structure (SMILES) | IC50 amph. B ×100/IC50 compd., L. tropica [1] | Ratio IC50 miltef./IC50 compd., L. tropica [1] | IC50 [1] [µM] | IC50 amph. B ×100/IC50 compd., L. infantum [2] | Ratio IC50 miltef./IC50 compd., L. infantum [2] | IC50 [2] [µM] | IC50 [3] [µM] | SI L. infantum (IC50 Vero76/IC50 L. infantum) [4] | SI L. tropica (IC50 Vero76/IC50 L. tropica) [4] | further results |
| --- | --- | --- | --- | --- | --- | --- | --- | --- | --- | --- |
| COc1ccc(Cc2nc3cc([N+](=O)[O-])ccc3n2C[C@@H]2CCCN3CCCC[C@H]23)cc1 [Compound 34] | 2.99 | 12.6 | 3.44 ± 1.43 | 1.77 | 4.7 | 6.68 ± 1.74 | 49 | 7.33 | 14.24 | – |
| CCN(CC)CCCn1c(Cc2ccc(Cl)cc2)nc2cc(C(F)(F)F)ccc21 [2-(4-chlorobenzyl)-1-(3-diethylaminopropyl)-5-trifluoromethylbenzimidazole] | – | – | – | – | – | – | – | – | – | Reduction of serum cholesterol concentration [5]: > 15% |
| CCCCCCCCCCCCCCCCOP(=O)([O-])OCC[N+](C)(C)C [Miltefosine, miltefosine, reference compound] | – | – | – | – | – | – | – | – | – | IC50 ([6]; ref 6c): 16.7 µM; IC50 ([6]; ref 11a): 15 µM; IC50 ([6]; ref 13b): 19.6 µM; IC50 [7]: 99.8 µM; SI L. infantum (IC50 HMEC-1/IC50 L. infantum) ([7]; selectivity index, HMEC-1): 3.2; IC50 [1, 16]: 43 µM; Ratio IC50 miltef./IC50 compd., L. tropica [1, 17]: 1.0; IC50 amph. B ×100/IC50 compd., L. tropica [1, 18]: 0.26; IC50 ([2]; promastigotes, MTT): 31.3 ± 10.4 µM; Ratio IC50 miltef./IC50 compd., L. infantum [2, 17]: 1.0; IC50 amph. B ×100/IC50 compd., L. infantum [2, 18]: 0.27 |
| O=[N+]([O-])c1ccc2c(c1)nc(Cc1ccccc1)n2C[C@@H]1CCCN2CCCC[C@H]12 [Compound 32] | 1.43 | 6.0 | 7.22 ± 3.13 | 1.24 | 3.3 | 9.55 ± 3.11 | 50 | 5.23 | 6.93 | – |
| FC(F)(F)c1ccc2c(c1)nc(Cc1ccc(Cl)cc1)n2C[C@@H]1CCCN2CCCC[C@H]12 [Compound 28, 2-(4-chlorobenzyl)-1-lupinyl-5-trifluoromethylbenzimidazole] | – | – | – | – | – | – | > 100 | – | – | IC50 [7]: 16.9 µM; EC50 [8]: 13 µM; IC50 [1, 16]: 3.7 ± 1.19 µM; IC50 amph. B ×100/IC50 compd., L. tropica [1, 18]: 4.8; IC50 ([2]; promastigotes, MTT): 4.76 ± 1.6 µM; IC50 amph. B ×100/IC50 compd., L. infantum [2, 18]: 4.4; GI50 [9]: < 5 µM; GI50 [10]: 0.019 µM; Reduction of the amastigote infection of THP-1 cells ([11]; 2 μM concentration): 33.2%; IC50 ([11]; Leishmania infantum, THP-1 macrophages, 72 h, read-out: IC50 against intramacrophagic amastigote stage of L. infantum): > 2 µM; EC50 [12]: 15 µM |
| N=C(N)c1ccc(OCCCCCOc2ccc(C(=N)N)cc2)cc1 [pentamidine] | – | – | – | – | – | – | – | – | – | IC50 [13]: 2.2 µM and 2.87 µM; IC50 [14]: 2.42 µM; IC50 [15]: 9.57 µM |
| O=[N+]([O-])c1ccc2c(c1)nc(Cc1ccc(Cl)cc1)n2C[C@@H]1CCCN2CCCC[C@H]12 [Compound 33] | 2.63 | 11.0 | 3.92 ± 1.43 | 1.73 | 4.6 | 6.82 ± 1.25 | 68 | 9.97 | 17.35 | – |
